Patent US20170348277A1, “CANNABINOID FORMULATION INCLUDING A V[…] OCULAR DELIVERY OF THE SAME” (priority 2017, published 2017)

Tests used:
[1] = oral; cited from earlier work
[2] = Vasodilators studied for increasing the rate of delivery of cannabinoids to a desired site of action; settings: vasodilator in cannabinoid formulation
Source text: Various vasodilators have been studied that have the desired effect of increasing the rate of delivery of cannabinoids to a desired site of action. […] The classes of vasodilators that may be substituted for the MSM of the present invention either in a preferred combination or in isolation. These classes include: • Alpha-adrenoceptor antagonists (alpha-blockers) • Angiotensin converting enzyme (ACE) inhibitors • Angiotensin receptor blockers (ARBs) • Beta2-adrenoceptor agonists (β2-agonists) • Calcium-channel blockers (CCBs) • Centrally acting sympatholytics • Direct acting vasodilators • Endothelin receptor antagonists • Ganglionic blockers • Nitrodilators • Phosphodiesterase inhibitors • Potassium-channel openers • Renin inhibitors

Q: With methylsulfonylmethane [MSM] as the substance, how does the “safe dose when taken orally” value [1] read?
A: Its value is “up to 2 gm/kg of body weight per day”.

Q: What about the “increasing the rate of delivery of cannabinoids to a desired site of action” value [2] of the same substance?
A: The value was “sufficiently effective”.
